Five molecules from publication PMC5010535 (Cancer research, 2016) can be followed below.

The subject of data set [1] is LNCaP-abl cells. The data set is described as follows: Cell proliferation assay, LNCaP-abl cells. It counts as cell-based. Particulars: 72 hours.
The subject of data set [2] is LNCaP-abl cells. The data set is described as follows: Clonogenic assay, LNCaP-abl cells. It counts as cell-based. Particulars: 10 μM, 10 days.
Data set [3] is described as follows: in vitro. Particulars: rat, liver microsomes.
In the next data set the test system is UBE2C. The data set is described as follows: UBE2C mRNA expression in LNCaP-95 cells. To be noted: 10 μM, 48 hours. It counts as cell-based.
Data set [4] in a line: in vitro. Particulars: liver microsomes.

In the case of `CNC(=O)c1ccc(N2C(=S)N(c3cnc(C#N)c(C(F)(F)F)c3)C(=O)C23CCC3)cc1F` [ARN509], in the data set on LNCaP-abl cells [1] (10 μM), the “effect on LNCaP-abl cellular proliferation” value is “not growth inhibited”. Moreover, the “effect on colony formation” value in the data set with LNCaP-abl cells [2] is “Neither enzalutamide nor ARN509 could effectively prevent colony formation”. The amount remaining is the share of the starting amount still present when the sample was taken. Lower therefore signals a greater loss. In the data set “in vitro [3]”, `CC(C)NCC(O)COc1cccc2ccccc12` (stereo not shown) [Propranolol, propranolol] yielded an amount remaining at 1 h, 1.09 µM of 58.7%.

Take `CNC(=O)c1ccc(N2C(=S)N(c3ccc(C#N)c(C(F)(F)F)c3)C(=O)C2(C)C)cc1F` [enzalutamide]: the “UBE2C mRNA expression” value with UBE2C is “significantly increased UBE2C mRNA expression”. In the data set on LNCaP-abl cells [2], the “effect on colony formation” value was “Neither enzalutamide nor ARN509 could effectively prevent colony formation”. `C#C[C@]1(O)CC[C@H]2[C@@H]3CCC4=CC(=O)CC[C@]4(C)[C@H]3CC[C@@]21C` [ethisterone]: the “EC50 (concentration required to inhibit the proliferation by 50%)” value with LNCaP-abl cells [1] (highest concentration tested 100 μM) is on record as “failed to reach 50% inhibition at the maximal concentration tested”.

A word on the half-life: it is how long it takes for the measured level to halve. A high value points to slow loss. On to `CCOc1ccc(NC(C)=O)cc1` [phenacetin], for which the half-life at 1.09 µM in the data set “in vitro [4]” was roughly 1.33 h.
